The structures appear in SMILES notation. Some results are limits rather than exact numbers.

As a reminder, the melting point is the temperature of the solid-liquid transition.

Molecule `CCCC[C@H](NC(=O)[C@H](C)Nc1nc2ccccc2s1)C(=O)OC` gave a melting point of 99 to 120 °C.
For `CCOC(=O)c1c(O)c2cnc(-c3ccccc3)nc2n(CC)c1=O`, the melting point fell in the range of 177 to 180 °C.
`CCOC(=O)c1cc(/C=C/c2ccc3ccccc3n2)cn1C` had a melting point of 140 to 142 °C.
In turn, `C=C(Cn1cc[nH]c1=O)c1ccc(OC)c(OC2CCCC2)c1` had a melting point of 110 °C.
For `CC1CCC2C(C)(C)C(=O)OC3OC4(C)CCC1C32OO4` (single isomer, unassigned; (+)) the value was 117 to 118 °C; for `CSc1nc(Cl)c(-c2c(F)cccc2Cl)c(NC(C)C)n1`, 94 to 98 °C; for `O=C1NC(=O)C(CC#Cc2ccc(Cl)cc2)(S(=O)(=O)c2ccccn2)S1` (stereo not drawn), 140 to 141 °C.
The value for `Cc1c(-c2ccccc2)oc2c(C(=O)CCC(=O)O)cccc2c1=O` was 191 to 192 °C.
For `O=C(CCNC(=O)NOCCCl)NCC1CC1` the value was 105 to 106 °C; for `CC(=O)N1c2ccc(C#N)cc2C(Nc2ccc(Cl)cc2)CC1C` (stereo not drawn), 212 to 213 °C.
In the case of `Cc1ccc2c(c1)CC(N1CCN(CCN3CCOC3=O)CC1)c1cc(Cl)ccc1S2` (stereo not drawn), the melting point is 174 to 175 °C.
For `O=C(C=c1sc2n(c1=O)Cc1ccccc1N=2)NCc1ccccc1` the value was 258 to 259 °C.
In turn, `COc1ccc(CSC2CNC(=O)C2)cc1` (stereo not drawn) came in with a melting point of 95 to 96 °C.
The value for `CC(Oc1ncn(-c2ccc(Br)cc2)n1)C(=O)N1CCCC1` (stereo not drawn) was 144 to 145 °C.
`COC(=O)c1cnc(OC)c([N+](=O)[O-])c1` returned a melting point of 118 to 119 °C.
`CCCc1c(OCC(=O)OCC)ccc(C(C)=O)c1O`: the melting point lay in the range of 61 to 64 °C.
The value for `Cc1c2c(cc3c(-c4ccccc4F)noc13)CC(C(=O)O)O2` (stereo not drawn) was 188 to 189 °C; that for `CCCCS(=O)(=O)Oc1cn(C)c2ccccc2c1=O` was 143 to 144 °C; that for `OCC1OC(n2c(Cl)nc3cc(Cl)c(F)cc32)C(O)C1O` (stereo not drawn) was 170 to 172 °C.
For the molecule `CCOC(=O)c1cccc2c1N=C(c1ccccc1)CC2=O`, the melting point lay in the range of 218 to 219 °C.
With `CCOP(=O)(OCC)Oc1cc2c(c3ccccc13)Nc1ccccc1S2`, the melting point fell in the range of 162 to 163 °C.
The value for `CC(=O)n1nc(-c2c(C)cc(C)c([N+](=O)[O-])c2C)n2nc(C(C)(C)C)cc12` was 169 to 171 °C.
The value for `Cc1cc2c(c(O)c1O)C(=O)c1c(O)cccc1C2=O` was 239 to 240 °C; that for `COC(=O)c1nsc(N)n1` was 202 to 205 °C.
Consider `CCCCCCCCCCCCCCCCCCOc1cc(NC(=O)OCc2ccccc2)cc(OCCCOc2ccccc2)c1`, for which the melting point was 68 to 69 °C.
For `CCOCc1nc2c(N)nc3cc(OCc4ccc(OC)cc4)ccc3c2n1CC(C)C` the value was 181 to 182 °C; for `O=C1C(=O)c2ccccc2C2=C1SCC1(CCN(C(=O)c3ccccc3I)CC1)O2`, 165 to 166 °C; for `COC(=O)CCc1cccc(-c2ccccc2)c1`, 29 to 30 °C.
The value for `Cc1cc(-c2ccccc2)nc(-c2cccc([N+](=O)[O-])c2)c1C(=O)O` was 191 to 192 °C; that for `O=C(CC1c2ccccc2C(=O)N1c1ccc(Cl)cn1)N1CCCCC1` (stereo not drawn) was 165 to 166 °C; that for `Cn1ncc2c3[nH]ncc3ccc21` was 180 to 184 °C.
The value for `O=[PH](c1ccc2ccccc2c1)c1ccc2ccccc2c1` was 98.3 °C; that for `Cc1cn(C2CCN(c3c(F)cc4c(=O)c(C(=O)O)cn5c4c3OCC5C)C2)nn1` (single isomer, unassigned; (-)) was 241 to 242 °C; that for `CC(=CC(=O)O)c1ccc(-c2ccc(F)cc2)cc1` was 58 to 60 °C.
As for `O=C(O)CCC(=O)N1Cc2c(cc3ccc4c(c3c2-c2ccc3c(c2)OCO3)OCO4)C1=O`, the melting point fell in the range of 231 to 233 °C.
On to `COC(=O)c1ccccc1C1=NC(C)(C(C)C)C(=S)N1` (stereo not drawn), for which the melting point is 134 to 138 °C.
With `CC(=O)N(CC=C=CC=c1c(C)c2c(n(C)c1=O)=NN(c1ccccc1)C2=O)c1ccccc1`, the melting point was over 300 °C.
Take `C[C@@H](N1CCN(c2nnn(Cc3ccc(C(F)(F)F)cc3)n2)CC1)[C@](O)(Cn1cncn1)c1ccc(F)cc1F`: the melting point is 71 to 72 °C.
For `O=C(O)c1cc(Br)cnc1Cl`, the melting point lay in the range of 174 to 177 °C.
For `COC(=O)c1ccc2cccc3c2c1-c1ccccc1-3` the value was 70 to 71 °C; for `CC(C)(C)c1cc(CSCCC(=O)NCCCCCCNC(=O)CCSCc2cc(C(C)(C)C)c(O)c(C(C)(C)C)c2)cc(C(C)(C)C)c1O`, 126 to 130 °C.
`COc1ccc(Cn2c3ccc(Cl)cc3c3c(C(=O)Nc4c(Cl)cncc4Cl)ccc(OC)c32)cc1` showed a melting point of 257 to 258 °C.
The value for `CCCCOC(=O)c1cc(=O)c2c(cc(OC)c3ncccc32)[nH]1` was 212 to 213 °C; that for `CC(=O)OC(COc1ccc(C(=O)O)cc1)c1cc2cc(C(C)C)ccc2o1` (stereo not drawn) was 135 to 137 °C.
For `COCCCNCC(=O)Nc1ccc(C(=O)OC)cc1` the value was 49 to 50 °C.
For `COC(=O)C(C)(C)c1ccc(C(=O)Nc2cn3c4c(ccc3n2)OCC4)cc1` the value was 235 to 237 °C; for `Oc1cnccc1N=CN1CCCCCC1`, 117 to 118 °C; for `OCC1OC(n2cnc3c(NCC(c4ccc(Cl)cc4)c4ccc(Cl)cc4)ncnc32)C(O)C1O` (stereo not drawn), 95 to 120 °C.
`N=C(N)c1ccc2ncn(CC(=O)N3CCC(Cc4ccccc4)CC3)c2c1` displayed a melting point of 68 to 70 °C.
The value for `COc1ccc2[nH]c(SCc3nccc(N4CCOCC4)n3)nc2c1` was 188 to 192 °C; that for `CC(=O)OC1COC(N=[N+]=[N-])C(OC(C)=O)C1OC(C)=O` (stereo not drawn) was 76 °C.
Molecule `CCC(C)NC1=NS(=O)(=O)c2cc([N+](=O)[O-])ccc2N1` (stereo not drawn) showed a melting point of 287 to 288 °C.
In the case of `N#Cc1ccc(C=Cc2ccc(C#N)cc2)cc1`, the melting point turned out to be 288 °C.
For `Cc1cc2c(-c3cccc(/C=C/C=O)c3)c(CC(=O)Nc3ccc(F)cc3C(F)(F)F)c(=O)oc2cc1Cl` the value was 232 to 235 °C; for `CC(C)=CCSC1=C(O)CC(C)(C)CC1=O`, 50.5 to 52 °C; for `CC1(C(=O)Nc2ccc(-n3nc(C(F)(F)F)cc3C(F)(F)F)cc2)C=CCCC1` (stereo not drawn), 108 to 110 °C.
The value for `CC(=O)Nc1cc(I)ccc1Sc1ccc([N+](=O)[O-])cc1[N+](=O)[O-]` was 224 to 226 °C; that for `O=C1C2CSCC1CN(Cc1ccccc1)C2` was 91 to 92 °C.
The value for `Cc1c(C2CCC(c3ccccc3)(N(C)C)CC2)[nH]c2ccc(OC(F)(F)F)cc12` (stereo not drawn) was 219 to 221 °C.
Turning to `O=C(C=Cc1ccc(F)c(F)c1)c1ccccc1O`, the melting point is 131 to 133 °C.
`O=[N+]([O-])c1ccc(OCc2ccc(F)cc2)cc1` came in with a melting point of 124 to 126 °C.
For `COc1cc(Cl)c(NN)c(Cl)c1` the value was 124 to 125 °C.
`CCOC(=O)CN1C(=O)C(C(C)C)N(C(C)=O)C=C1c1ccccc1` (racemic) displayed a melting point of 96 to 98 °C.

Source of the values: a melting point compilation (Tetko et al.; mined from patent text by program, amines drawn as free bases though some values may be those of a salt).
